Reference: patent US9604944B2, “Arylpiperazine derivatives and methods of utilizing same” (REVIVA PHARMACEUTICALS, INC., priority 2009, dated 2017)
Structures can show the parent of a compound that is named as a salt.

What was measured:
[1] = molecular target: serotonin 5-HT2A receptor (Human Cortex) (Homo sapiens (Human), UniProt P28223); assay: Serotonin, 5HT2A (human) binding assay; settings: radioligand [3H]-Ketanserin
Procedure: Serotonin, 5HT2A (human) binding assay
Materials and Methods: • Receptor Source: Human Cortex • Radioligand: [^3H]-Ketanserin (60-90 Ci/mmol) • Control Compound: Ketanserin • Incubation Conditions: The reactions were carried out in 50 mM TRIS-HCl (pH 7.6) at room temperature for 90 minutes. The reaction was terminated by rapid vacuum filtration onto glass fiber filters. Radioactivity trapped onto the filters was determined and compared to control values in order to ascertain any interactions of test compounds with the serotonin-5HT2A binding site (Literature Reference: Leysen, J. E. et al. Mol. Pharmacol. 1982, 21, 301-314; Martin, G. R. and Humphrey, P. P. A. Neuropharmacol. 1994, 33(3/4), 261-273.)
(§1) The radioligand binding assays for dopamine-D2S, serotonin-5HT1A and serotonin-5HT2A were carried out at six different concentrations and the test concentrations were 0.5 nM, 1 nM, 10 nm, 100 nM, 300 nM and 1000 nM.

[2] = molecular target: serotonin 5-HT1A receptor (human recombinant expressed in HEK-293 cells) (Homo sapiens (Human), UniProt P08908); assay: Serotonin, 5HT1A (human recombinant) binding assay; settings: radioligand [3H]-8-OH-DPAT; human recombinant in HEK-293 cells
Procedure: Serotonin, 5HT1A (human recombinant) binding assay
Materials and Methods: • Receptor Source: Human recombinant expressed in HEK-293 cells • Radioligand: [^3H]-8-OH-DPAT (221 Ci/mmol) • Control Compound: 8-OH-DPAT • Incubation Conditions: The reactions were carried out in 50 mM TRIS-HCl (pH 7.4) containing 10 mM MgSO4, 0.5 mM EDTA and 0.1% Ascorbic acid at room temperature for 1 hour. The reaction was terminated by rapid vacuum filtration onto glass fiber filters. Radioactivity trapped onto the filters was determined and compared to control values in order to ascertain any interactions of test compounds with the cloned serotonin—5HT1A binding site (Literature Reference: Hoyer, D. et al. Eur. Journal Pharmacol. 1985, 118, 13-23; Schoeffter, P. and Hoyer, D. Naunyn-Schmiedeberg's Arch. Pharmac. 1989, 340, 135-138)
as §1

[3] = molecular target: dopamine D2S receptor (human recombinant expressed in CHO cells) (Homo sapiens (Human), UniProt P14416); assay: Dopamine, D2S (human recombinant) binding assay; settings: radioligand [3H]Spiperone
Procedure: Dopamine, D2S (human recombinant) binding assay
Materials and Methods: • Receptor Source: Human recombinant expressed in CHO cells • Radioligand: [^3H]Spiperone (20-60 Ci/mmol) • Control Compound: Haloperidol • Incubation Conditions: The reactions were carried out in 50 mM TRIS-HCl (pH 7.4) containing 120 mM NaCl, 5 mM KCl, 5 mM MgCl2, 1 mM EDTA for 60 minutes at 25 C. The reaction was terminated by rapid vacuum filtration onto glass fiber filters. Radioactivity trapped onto the filters was determined and compared to control values in order to ascertain any interactions of test compounds with the cloned dopamine—D2 short binding site (Literature Reference: Jarvis, K. R. et al. Journal of Receptor Research 1993, 13(1-4), 573-590; Gundlach, A. L. et al. Life Sciences 1984, 35, 1981-1988.)
as §1

Chain of serotonin 5-HT1A receptor (human recombinant expressed in HEK-293 cells) (P08908 whole entry): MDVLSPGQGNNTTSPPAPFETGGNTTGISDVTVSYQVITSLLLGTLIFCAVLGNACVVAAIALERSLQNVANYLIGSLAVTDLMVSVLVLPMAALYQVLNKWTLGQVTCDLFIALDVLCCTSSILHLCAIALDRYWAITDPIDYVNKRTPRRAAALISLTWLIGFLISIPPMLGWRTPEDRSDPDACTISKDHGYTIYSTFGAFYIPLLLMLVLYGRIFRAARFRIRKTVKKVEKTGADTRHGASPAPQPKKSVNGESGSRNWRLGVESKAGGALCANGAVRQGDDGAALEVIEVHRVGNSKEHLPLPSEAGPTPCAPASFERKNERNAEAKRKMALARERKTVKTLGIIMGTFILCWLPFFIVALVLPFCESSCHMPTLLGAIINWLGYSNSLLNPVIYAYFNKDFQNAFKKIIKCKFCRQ
Chain of serotonin 5-HT2A receptor (Human Cortex) (P28223 whole entry): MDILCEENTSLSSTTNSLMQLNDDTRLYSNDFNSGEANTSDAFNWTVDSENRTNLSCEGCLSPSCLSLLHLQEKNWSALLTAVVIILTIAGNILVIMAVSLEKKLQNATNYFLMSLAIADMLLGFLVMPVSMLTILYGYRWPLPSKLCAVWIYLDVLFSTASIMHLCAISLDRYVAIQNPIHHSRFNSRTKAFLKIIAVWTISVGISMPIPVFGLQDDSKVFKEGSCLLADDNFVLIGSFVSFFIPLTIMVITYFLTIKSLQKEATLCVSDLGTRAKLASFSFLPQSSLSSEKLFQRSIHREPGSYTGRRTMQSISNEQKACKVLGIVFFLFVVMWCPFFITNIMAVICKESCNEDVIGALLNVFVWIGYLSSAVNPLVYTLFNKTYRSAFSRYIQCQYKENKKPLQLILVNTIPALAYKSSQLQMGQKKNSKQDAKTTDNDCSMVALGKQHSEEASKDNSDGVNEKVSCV
Chain of dopamine D2S receptor (human recombinant expressed in CHO cells) (P14416 other isoform, or with tags, fused parts or gaps): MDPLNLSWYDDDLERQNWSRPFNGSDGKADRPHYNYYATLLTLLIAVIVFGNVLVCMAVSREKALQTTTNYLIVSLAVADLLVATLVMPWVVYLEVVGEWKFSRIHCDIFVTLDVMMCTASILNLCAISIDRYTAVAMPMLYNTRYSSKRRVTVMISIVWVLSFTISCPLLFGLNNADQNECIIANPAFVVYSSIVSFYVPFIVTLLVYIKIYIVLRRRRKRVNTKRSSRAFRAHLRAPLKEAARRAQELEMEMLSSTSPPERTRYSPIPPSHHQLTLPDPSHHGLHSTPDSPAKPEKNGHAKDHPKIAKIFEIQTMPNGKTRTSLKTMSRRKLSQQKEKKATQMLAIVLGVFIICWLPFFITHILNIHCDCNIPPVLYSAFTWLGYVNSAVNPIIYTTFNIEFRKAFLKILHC

O=C1COc2ccc(OCCCCN3CCN(c4cccc(Cl)c4Cl)CC3)cc2N1 [Compound 15b, 6-(4-(4-(2,3-Dichlorophenyl)piperazin-1-yl)butoxy)-2H-benzo[b][1,4]oxazin-3(4H)-one hydrochloride]
IC50 [1]: 130 nM | Ki [1]: 58.5 nM | IC50 [2]: 2.25 nM | Ki [2]: 1.5 nM

COc1ccccc1N1CCN(CCCCOc2ccc3c(c2)NC(=O)CO3)CC1 [Compound 15a, 6-(4-(4-(2-Methoxyphenyl)piperazin-1-yl)butoxy)-2H-benzo[b][1,4]oxazin-3(4H)-one hydrochloride]
IC50 [1]: 262 nM | Ki [1]: 118 nM | IC50 [2]: 0.97 nM | Ki [2]: 0.65 nM | IC50 [3]: 0.98 nM | Ki [3]: 0.3 nM
